Reference: ChEMBL document CHEMBL1201862, “PubChem BioAssay data set” (2004)
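Test compounds were applied to cells in 96-well plates for 48 hours at 5 doses. GI50 is the concentration that inhibits growth by half.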 The source made the active and inactive calls. Cut-off read from the data, not from the text of the source: active = GI50 up to about 1.1 µM and inactive = higher.

Legend:
Assay in all cases: NCI anticancer screen, dose series, 48 h
IGROV-1 = test system: IGROV-1
TK-10 = test system: TK-10
SF-268 = test system: SF-268
DU-145 = test system: DU-145
SK-MEL-5 = test system: SK-MEL-5
SNB-19 = test system: SNB-19
NCI/ADR-RES = test system: NCI/ADR-RES
HOP-92 = test system: HOP-92
NCI-H460 = test system: NCI-H460
OVCAR-3 = test system: OVCAR-3
A549 = test system: A549
ACHN = test system: ACHN
UO-31 = test system: UO-31
U-251 = test system: U-251
HOP-62 = test system: HOP-62
MCF7 = test system: MCF7
SR = test system: SR
EKVX = test system: EKVX
XF498 = test system: XF498
RPMI-8226 = test system: RPMI-8226

Q: Which results are given for `COc1ccccc1/C=C1\CCC(Cc2ccccc2)(CN(C)C)C1=O` (stereo not given)?
A: GI50 (IGROV-1): 3.67 µM (inactive); GI50 (TK-10): 5.96 µM (inactive); GI50 (SF-268): 4.85 µM (inactive); GI50 (DU-145): 7.93 µM (inactive); GI50 (SK-MEL-5): 1.85 µM (inactive); GI50 (SNB-19): 1.57 µM (inactive); GI50 (NCI/ADR-RES): 0.989 µM (active); GI50 (HOP-92): 27.5 µM (inactive); GI50 (NCI-H460): 0.698 µM (active); GI50 (OVCAR-3): 0.942 µM (active); GI50 (A549): 3.44 µM (inactive); GI50 (ACHN): 12.6 µM (inactive); GI50 (UO-31): 7.59 µM (inactive); GI50 (U-251): 0.524 µM (active); GI50 (HOP-62): 11.6 µM (inactive); GI50 (MCF7): 0.292 µM (active); GI50 (SR): 0.0948 µM (active); GI50 (EKVX): 3.35 µM (inactive); GI50 (XF498): 4.3 µM (inactive); GI50 (RPMI-8226): 0.612 µM (active)

Q: `CC(C)NC(=O)OCc1c(COC(=O)NC(C)C)c(-c2ccc(Cl)c(Cl)c2)n2c1CCC2` was tested. Which GI50 (IGROV-1) did it give?
A: The GI50 was 50 µM (inactive).

Q: What about the GI50 (TK-10) of the same compound?
A: The GI50 was 41.7 µM (inactive).

Q: What about the GI50 (SF-268) of the same compound?
A: The GI50 was 43.5 µM (inactive).

Q: What about the GI50 (DU-145) of the same compound?
A: Its GI50 is > 100 µM (inactive).

Q: What about the GI50 (SK-MEL-5) of the same compound?
A: Its GI50 is 24.9 µM (inactive).

Q: And the GI50 (SNB-19)?
A: Its GI50 is 56.5 µM (inactive).

Q: And the GI50 (NCI/ADR-RES)?
A: The GI50 was > 89.7 µM (inactive).

Q: What about the GI50 (HOP-92) of the same compound?
A: The GI50 was 29.4 µM (inactive).

Q: What about the GI50 (NCI-H460) of the same compound?
A: Its GI50 is 36.6 µM (inactive).

Q: And the GI50 (OVCAR-3)?
A: The GI50 was 54 µM (inactive).

Q: What about the GI50 (A549) of the same compound?
A: Its GI50 is 21.1 µM (inactive).

Q: What about the GI50 (ACHN) of the same compound?
A: The GI50 was 18.7 µM (inactive).

Q: And the GI50 (UO-31)?
A: Its GI50 is 45 µM (inactive).

Q: What about the GI50 (U-251) of the same compound?
A: Its GI50 is 51.3 µM (inactive).

Q: What about the GI50 (HOP-62) of the same compound?
A: The GI50 was 38.5 µM (inactive).

Q: And the GI50 (MCF7)?
A: Its GI50 is > 100 µM (inactive).

Q: And the GI50 (SR)?
A: Its GI50 is 6.37 µM (inactive).

Q: And the GI50 (EKVX)?
A: The GI50 was 57.1 µM (inactive).

Q: And the GI50 (XF498)?
A: The GI50 was 45.7 µM (inactive).

Q: What about the GI50 (RPMI-8226) of the same compound?
A: Its GI50 is 17.9 µM (inactive).
